In general, IC50 refers to the point on the concentration scale where inhibition reaches its midpoint. Low values mean greater potency in that assay, high ones weaker potency in that assay.

This note sets out measurements from ChEMBL document CHEMBL1125442, “Amide bond replacements incorporated into CCK-B selective "dipeptoids"” (J Med Chem, 1992).

The nature of assay [1]: Selectivity ratio defined as the ratio of IC50(CCK-A)/IC50(CCK-B).
Assay [2] has as its target Cholecystokinin receptor type A (Rattus norvegicus) (UniProt P30551). Put plainly: Inhibition of [125I]CCK-8 binding to cholecystokinin type A receptor in the rat pancreas.
Assay [3] deals with Gastrin/cholecystokinin type B receptor (Mus musculus) (UniProt P56481). In words: Inhibition of [125I]CCK-8 binding to cholecystokinin type B receptor in the mouse cerebral cortex.

Values joined by “and” are separate entries in the source; they are usually repeats but may differ in a detail not shown here. Equal entries are not always repeated.

Turning to `O=C(NC(Cc1c[nH]c2ccccc12)C(=O)OC(CO)Cc1ccccc1)OC1[C@H]2C[C@@H]3C[C@@H](C[C@H]1C3)C2` (some centres not stated), in assay [1], the Ratio stood at 1.6. Moreover, the IC50 is 2950 nM in assay [2] and 1890 nM in assay [3].
On the same counts, the results for `COC(=O)CCC(=O)N[C@H](COC(=O)C(C)(Cc1c[nH]c2ccccc12)NC(=O)OC1[C@H]2C[C@@H]3C[C@@H](C[C@H]1C3)C2)c1ccccc1` (some centres not stated) are 4.9, 351 nM and 71.2 nM.
Take `O=C(NC(Cc1c[nH]c2ccccc12)/C(S)=N/C(CO)Cc1ccccc1)OC1[C@H]2C[C@@H]3C[C@@H](C[C@H]1C3)C2` (some centres not stated): the Ratio in assay [1] amounted to 1.2.
Take `CCOC(=O)CCCCCC(=O)N(CCc1ccccc1)CC(C)(Cc1c[nH]c2ccccc12)NC(=O)OC1[C@H]2C[C@@H]3C[C@@H](C[C@H]1C3)C2` (some centres not stated): the Ratio in assay [1] turned out to be 4.1. For the same compound, the IC50 in assay [2] turned out to be 3530 nM; in assay [3] it was 863 nM.
On to `CC(Cc1c[nH]c2ccccc12)(NC(=O)OC1[C@H]2C[C@@H]3C[C@@H](C[C@H]1C3)C2)/C(S)=N/CCc1ccccc1` (some centres not stated), for which the Ratio in assay [1] was 1.9.
As to `CC(Cc1c[nH]c2ccccc12)(NC(=O)OC1[C@H]2C[C@@H]3C[C@@H](C[C@H]1C3)C2)C(O)CCCc1ccccc1` (some centres not stated) [listing 1 of 3 here], the figures for the IC50 in assay [2] and in assay [3] were 1230 nM and 595 nM, respectively.
Turning to `CC(CCCCc1ccccc1)(Cc1c[nH]c2ccccc12)NC(=O)OC1[C@H]2C[C@@H]3C[C@@H](C[C@H]1C3)C2` (some centres not stated), in assay [1], the Ratio worked out at 2.2. The half-maximal inhibitory concentration (IC50) stood at 19500 nM in assay [2] and 8690 nM in assay [3].
The corresponding values for `CC(Cc1c[nH]c2ccccc12)(CN(CCc1ccccc1)C(=O)CCC(=O)O)NC(=O)OC1[C@H]2C[C@@H]3C[C@@H](C[C@H]1C3)C2` (some centres not stated) are 0.85, 1080 nM and 1270 nM.
On the same counts, the results for `O=C(NC(Cc1c[nH]c2ccccc12)C(=O)NC(CO)Cc1ccccc1)OC1[C@H]2C[C@@H]3C[C@@H](C[C@H]1C3)C2` (some centres not stated) are 1.3, 1080 nM and 852 nM.
On the same counts, the results for `CC(Cc1c[nH]c2ccccc12)(NC(=O)OC1[C@H]2C[C@@H]3C[C@@H](C[C@H]1C3)C2)C(=O)SCCc1ccccc1` (some centres not stated) are 1.3, 1190 nM and 932 nM.
As to `CN(CCc1ccccc1)C(=O)C(C)(Cc1c[nH]c2ccccc12)NC(=O)OC1[C@H]2C[C@@H]3C[C@@H](C[C@H]1C3)C2` (some centres not stated), the Ratio in assay [1] stood at 6.2. The half-inhibitory concentration (IC50) in assay [2] was found to be 757 nM; in assay [3] it was 123 nM.
The corresponding values for `CC(Cc1c[nH]c2ccccc12)(NC(=O)OC1[C@H]2C[C@@H]3C[C@@H](C[C@H]1C3)C2)C(=O)OCCc1ccccc1` (some centres not stated) are 2, 1070 nM and 547 nM.
For `O=C(NC(Cc1c[nH]c2ccccc12)C(=S)NC(CO)Cc1ccccc1)OC1[C@H]2C[C@@H]3C[C@@H](C[C@H]1C3)C2` (some centres not stated), the IC50 in assay [2] is 1980 nM; in assay [3], 1590 nM.
In the case of `CC(Cc1c[nH]c2ccccc12)(NC(=O)OC1[C@H]2C[C@@H]3C[C@@H](C[C@H]1C3)C2)C(O)CCCc1ccccc1` (some centres not stated) [listing 2 of 3 here], the Ratio in assay [1] was 1.3 and 2.1.
Turning to `O=C(NC(CNC(CO)Cc1ccccc1)Cc1c[nH]c2ccccc12)OC1[C@H]2C[C@@H]3C[C@@H](C[C@H]1C3)C2` (some centres not stated), the Ratio in assay [1] came out at 0.11. For the same compound, the values for the IC50 in assay [2] and in assay [3] were 1250 nM and 11500 nM, respectively.
The corresponding values for `CCOC(=O)CCC(=O)N(CCc1ccccc1)CC(C)(Cc1c[nH]c2ccccc12)NC(=O)OC1[C@H]2C[C@@H]3C[C@@H](C[C@H]1C3)C2` (some centres not stated) are 2.3, 670 nM and 1630 nM.
Regarding `CN(C(=O)C(Cc1c[nH]c2ccccc12)NC(=O)OC1[C@H]2C[C@@H]3C[C@@H](C[C@H]1C3)C2)C(CO)Cc1ccccc1` (some centres not stated), in assay [1], the Ratio was found to be 0.74. Moreover, the 50% inhibitory concentration (IC50) in assay [2] came to 1080 nM; in assay [3], 1460 nM.
In the case of `CC(Cc1c[nH]c2ccccc12)(NC(=O)OC1[C@H]2C[C@@H]3C[C@@H](C[C@H]1C3)C2)C(=S)NCCc1ccccc1` (some centres not stated), the figures for the IC50 in assay [2] and in assay [3] were 1500 nM and 808 nM, respectively.
On to `CC(Cc1c[nH]c2ccccc12)(NC(=O)OC1[C@H]2C[C@@H]3C[C@@H](C[C@H]1C3)C2)C(O)CCCc1ccccc1` (some centres not stated) [listing 3 of 3 here], for which the IC50 worked out at 2620 nM in assay [2] and 1970 nM in assay [3].
